# Assays:
# [1] = biological target: CtPilB (Chloracidobacterium thermophilum, UniProt G2LDI3); assay: MANT-ATP binding to CtPilB (fluorescence); conditions: for Ki: estimated by Cheng-Prusoff equation from MANT-ATP IC50, assuming competitive inhibition, read-out: Ki (inhibition constant); for IC50: fraction of MANT-ATP bound, fluorescence
# Method: To probe the mechanisms of inhibition, we examined benserazide and levodopa for their effects on the binding of PilB to the fluorescent ATP analog MANT-ATP ([28]).
# FIG 3 Benserazide and levodopa reduce MANT-ATP binding to CtPilB. Fluorescence was used to calculate the fraction of MANT-ATP bound to CtPilB. Experiments were performed in triplicates with samples containing constant concentrations of CtPilB and MANT-ATP with varying concentrations of (A) benserazide or (B) levodopa. The three different sets of colored dots represent averages from three independent experiments with error bars omitted for clarity. Best fits to isotherms with indicated IC50s are shown.
# The effects of inhibitors on the ATPase activity of CtPilB and CtPilBΔN and the binding of MANT-ATP were determined as described previously ([28], [29]). Stock solutions were prepared by dissolving benserazide hydrochloride (Alfa Aesar) or levodopa (Spectrum Chemical Mfg. Corp.) in dimethyl sulfoxide (DMSO; Fisher Biotech). Next, 10× working stocks for given concentrations of an inhibitor were freshly prepared before their use in an experiment. GraphPad Prism v7.04 was used for curve fitting and Student’s t test was used for statistical analysis.
# [2] = biological target: T1, CtPilBΔN (Chloracidobacterium thermophilum, UniProt G2LDI3); assay: ATPase assay of truncated CtPilB variant without N-terminal MshEN domain; format: biochemical; conditions: read-out: IC50, ATPase activity of PilBΔN
# T1 sequence (G2LDI3 140-614): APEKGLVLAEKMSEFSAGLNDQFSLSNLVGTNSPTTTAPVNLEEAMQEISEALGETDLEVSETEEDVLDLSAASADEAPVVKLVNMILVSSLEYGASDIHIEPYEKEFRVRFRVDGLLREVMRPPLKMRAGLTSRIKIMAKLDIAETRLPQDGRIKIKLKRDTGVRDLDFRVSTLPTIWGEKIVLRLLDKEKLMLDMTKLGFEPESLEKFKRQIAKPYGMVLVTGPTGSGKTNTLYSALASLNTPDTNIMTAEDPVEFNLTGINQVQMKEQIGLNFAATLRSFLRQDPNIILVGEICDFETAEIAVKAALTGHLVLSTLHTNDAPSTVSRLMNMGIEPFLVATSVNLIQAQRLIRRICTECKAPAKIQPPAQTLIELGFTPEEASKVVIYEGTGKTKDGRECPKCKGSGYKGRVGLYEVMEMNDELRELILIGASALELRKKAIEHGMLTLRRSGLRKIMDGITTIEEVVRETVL
# Excerpt: CtPilB, like its orthologue MshE ([35]), has a MshEN-like cyclic di-GMP-binding domain at its N terminus and a well-conserved ATPase domain at its C terminus ([28], [29]). To determine which domain the inhibitors interact with, we tested the effects of benserazide and levodopa on the ATPase activity of a truncated CtPilB variant (PilBΔN) without the N-terminal MshEN domain ([29]). […] These values are similar to those against the full-length PilB (Fig. 2).
# The full-length CtPilB and the CtPilBΔN variant (with the first 139 residues at the N terminus truncated) were purified as preciously described ([29]). The HTS was conducted using 384-well microplates (Greiner, cat no. 781101). Each microwell for the screen contained a 15-μL reaction mixture consisting of 75 nM CtPilB, 0.5 mM ATP, 20 μM of a library compound, and 2% DMSO in activity buffer (50 mM N-tris(hydroxymethyl)methyl-3-aminopropanesulfonic acid [TAPS], 50 mM Tris, 75 mM KCl, 50 mM sodium acetate, 5 mM MgCl2, 50 mM ZnCl2 [pH 8.7]) ([29]). Reaction mixtures were incubated at 55°C for 10 min and transferred to ice for 5 min to stop the enzymatic reaction. […] Absorbance at 620 nm (A620) was measured using a SpectraMax M5 microplate reader at room temperature. […]
# The effects of inhibitors on the ATPase activity of CtPilB and CtPilBΔN and the binding of MANT-ATP were determined as described previously ([28], [29]). […]
# [3] = tested on: A. nosocomialis biofilm formation; assay: Biofilm formation, microplate assay with crystal violet staining; format: cell-based, Acinetobacter nosocomialis; conditions: WT, P < 0.05
# Excerpt: The inhibitors may thus interact with conserved features of the PilB ATPase family. A. nosocomialis PilB ([19]), whose N terminus is not similar to the MshEN domain (data not shown), shares ~53% identity and ~74% homology with MxPilB and MC3PilB in the ATPase domain (Fig. S1). We analyzed whether benserazide and levodopa could impact the T4P-powered twitching motility ([19], [44]) of A. nosocomialis (Fig. 7), an opportunistic pathogen in the Acinetobacter calcoaceticus-Acinetobacter baumannii (ACB) complex ([45]). As shown in Fig. 7A and B and Fig. S7, benserazide and levodopa impede the twitching motility of WT A. nosocomialis in a concentration-dependent manner.
# FIG 7 Benserazide and levodopa inhibit Acinetobacter nosocomialis twitching motility and biofilm formation. […] (C and D) Biofilms formed by A. nosocomialis with (C) benserazide or (D) levodopa were analyzed by a microplate assay with crystal violet (CV) staining. […]
# The A. nosocomialis wild-type M2 strain and an isogenic pilA deletion (ΔpilA) mutant ([19], [46]) were used in this study. […] The twitching motility of the M2 strain of A. nosocomialis was analyzed with 1% crystal violet (CV) for staining, and twitching areas were used as measures of motility as previously described ([46]). […] A. nosocomialis biofilm formation was analyzed using microplates and CV staining as previously described ([53], [54]). […]
# CtPilB, sequence (G2LDI3 entry or part of it): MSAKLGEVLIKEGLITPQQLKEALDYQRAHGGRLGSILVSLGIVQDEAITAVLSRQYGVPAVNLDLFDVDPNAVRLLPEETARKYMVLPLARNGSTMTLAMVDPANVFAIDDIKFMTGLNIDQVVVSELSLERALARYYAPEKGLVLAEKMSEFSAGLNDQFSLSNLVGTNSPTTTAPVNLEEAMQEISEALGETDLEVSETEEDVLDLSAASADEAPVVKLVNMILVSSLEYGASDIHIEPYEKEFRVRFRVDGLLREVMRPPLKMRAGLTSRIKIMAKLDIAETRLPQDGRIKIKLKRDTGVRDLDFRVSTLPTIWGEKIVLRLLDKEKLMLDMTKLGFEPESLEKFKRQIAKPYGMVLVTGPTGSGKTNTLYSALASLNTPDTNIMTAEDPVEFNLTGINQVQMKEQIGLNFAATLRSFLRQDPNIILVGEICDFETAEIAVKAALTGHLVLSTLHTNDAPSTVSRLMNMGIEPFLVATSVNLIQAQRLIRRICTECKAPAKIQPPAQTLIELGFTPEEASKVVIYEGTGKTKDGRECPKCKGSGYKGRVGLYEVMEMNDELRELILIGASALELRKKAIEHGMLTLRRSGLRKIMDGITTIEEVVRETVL
Compound,Ki [1],IC50 [1],IC50 [2],concentration significantly reducing biofilm formation [3]
NC(CO)C(=O)NNCc1ccc(O)c(O)c1O (centres unmarked) [benserazide],2.27 µM,33.6 ± 0.5 µM,2.2 ± 0.4 µM,≥ 32 µM
"N[C@@H](Cc1ccc(O)c(O)c1)C(=O)O [levodopa, 3,4-dihydroxyphenylalanine]",3.4 µM,50.5 ± 9.2 µM,76.2 ± 9.2 µM,≥ 32 µM
